Data from US7994140B2, “Classes of compounds that interact with GPCRs” (Alchemia Limited, priority 2002, dated 2011).

Experiments:
MC4 = target: T1, MC4 (Homo sapiens, UniProt P32245); test: GPCR radioligand binding (RLB) assay, melanocortin MC4, [125I]NDP-αMSH; conditions: 10 micromolar; Example Library 4
T1 construct: purchased Perkin Elmer BioSignal; host or cells: HEK 293
In short: (§1)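 Membranes from HEK 293 cells expressing the recombinant human receptor were equilibrated with [125I]SST-14 (SST5) or [125I]NDP-αMSH (MC4), then compound added for an optimized incubation. Bound ligand separated by filtration on PEI-coated glass fiber and counted by liquid scintillation.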

SST5 = target: T2, SST5 (Homo sapiens, UniProt P35346); test: GPCR radioligand binding (RLB) assay, somatostatin SST5, [125I]SST-14; conditions: 10 micromolar; Example Library 4
T2 construct: purchased Perkin Elmer BioSignal; host or cells: HEK 293
T2 sequence (P35346 whole entry): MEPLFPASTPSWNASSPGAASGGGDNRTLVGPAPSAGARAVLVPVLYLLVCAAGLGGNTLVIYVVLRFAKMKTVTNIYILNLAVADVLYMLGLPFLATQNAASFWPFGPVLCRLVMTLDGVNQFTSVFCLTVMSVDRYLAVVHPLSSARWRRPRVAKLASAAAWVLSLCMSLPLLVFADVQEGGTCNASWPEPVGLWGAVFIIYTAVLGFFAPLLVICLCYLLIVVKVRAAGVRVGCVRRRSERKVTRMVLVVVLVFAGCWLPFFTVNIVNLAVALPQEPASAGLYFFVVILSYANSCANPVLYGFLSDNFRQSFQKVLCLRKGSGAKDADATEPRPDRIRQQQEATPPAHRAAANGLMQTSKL
In short: as §1

T1 sequence (P32245 whole entry): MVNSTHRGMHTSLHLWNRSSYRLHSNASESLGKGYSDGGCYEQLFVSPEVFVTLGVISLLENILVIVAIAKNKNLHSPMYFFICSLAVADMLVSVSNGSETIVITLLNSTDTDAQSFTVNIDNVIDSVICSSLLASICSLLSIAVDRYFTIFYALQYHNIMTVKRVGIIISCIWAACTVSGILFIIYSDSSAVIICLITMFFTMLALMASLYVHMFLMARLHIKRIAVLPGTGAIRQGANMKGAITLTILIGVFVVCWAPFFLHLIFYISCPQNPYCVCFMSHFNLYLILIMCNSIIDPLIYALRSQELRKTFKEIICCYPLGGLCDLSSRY

SMILES | MC4 inhibition at 10 micromolar (MC4) | SSTS inhibition at 10 micromolar (SST5)
COCC1OC(OCc2ccc(Cl)cc2)C(NC(=O)CN)C(OCc2ccc3ccccc3c2)C1O (centres unmarked) [Compound 254] | + (Indicates inhibition greater than . . . 50%) | + (Indicates inhibition greater than . . . 50%)
COCC1OC(OCc2ccc(Cl)cc2)C(NC(=O)CNC(=N)N)C(OCc2ccc3ccccc3c2)C1O (centres unmarked) [Compound 255] | + (Indicates inhibition greater than . . . 50%) | + (Indicates inhibition greater than . . . 50%)
COCC1OC(OCc2ccc(Cl)cc2)C(NC(=O)CCN)C(OCc2ccc3ccccc3c2)C1O (centres unmarked) [Compound 256] | + (Indicates inhibition greater than . . . 50%) | + (Indicates inhibition greater than . . . 50%)
COCC1OC(OCc2ccc(Cl)cc2)C(NC(=O)CCNC(=N)N)C(OCc2ccc3ccccc3c2)C1O (centres unmarked) [Compound 257] | + (Indicates inhibition greater than . . . 50%) | + (Indicates inhibition greater than . . . 50%)
COCC1OC(OCc2ccc(Cl)cc2)C(NC(=O)CCCN)C(OCc2ccc3ccccc3c2)C1O (centres unmarked) [Compound 258] | + (Indicates inhibition greater than . . . 50%) | + (Indicates inhibition greater than . . . 50%)
COCC1OC(OCc2ccc(Cl)cc2)C(NC(=O)CCCNC(=N)N)C(OCc2ccc3ccccc3c2)C1O (centres unmarked) [Compound 259] | + (Indicates inhibition greater than . . . 50%) | + (Indicates inhibition greater than . . . 50%)
COCC1OC(OCCc2ccccc2)C(NC(=O)CCNC(=N)N)C(OCc2ccccc2)C1O (centres unmarked) [Compound 263] | + (Indicates inhibition greater than . . . 50%) | + (Indicates inhibition greater than . . . 50%)
COCC1OC(OCCc2ccccc2)C(NC(=O)CCCNC(=N)N)C(OCc2ccccc2)C1O (centres unmarked) [Compound 265] | + (Indicates inhibition greater than . . . 50%) | + (Indicates inhibition greater than . . . 50%)
COCC1OC(OCCc2ccccc2)C(NC(=O)CNC(=N)N)C(OCc2ccc(Cl)cc2)C1O (centres unmarked) [Compound 267] | + (Indicates inhibition greater than . . . 50%) | + (Indicates inhibition greater than . . . 50%)
COCC1OC(OCCc2ccccc2)C(NC(=O)CCN)C(OCc2ccc(Cl)cc2)C1O (centres unmarked) [Compound 268] | + (Indicates inhibition greater than . . . 50%) | + (Indicates inhibition greater than . . . 50%)
COCC1OC(OCCc2ccccc2)C(NC(=O)CCNC(=N)N)C(OCc2ccc(Cl)cc2)C1O (centres unmarked) [Compound 269] | + (Indicates inhibition greater than . . . 50%) | + (Indicates inhibition greater than . . . 50%)
COCC1OC(OCCc2ccccc2)C(NC(=O)CCCN)C(OCc2ccc(Cl)cc2)C1O (centres unmarked) [Compound 270] | + (Indicates inhibition greater than . . . 50%) | + (Indicates inhibition greater than . . . 50%)
COCC1OC(OCCc2ccccc2)C(NC(=O)CCCNC(=N)N)C(OCc2ccc(Cl)cc2)C1O (centres unmarked) [Compound 271] | + (Indicates inhibition greater than . . . 50%) | + (Indicates inhibition greater than . . . 50%)
COCC1OC(OCCc2ccccc2)C(NC(=O)CN)C(OCc2ccc(-c3ccccc3)cc2)C1O (centres unmarked) [Compound 272] | + (Indicates inhibition greater than . . . 50%) | + (Indicates inhibition greater than . . . 50%)
COCC1OC(OCCc2ccccc2)C(NC(=O)CNC(=N)N)C(OCc2ccc(-c3ccccc3)cc2)C1O (centres unmarked) [Compound 273] | + (Indicates inhibition greater than . . . 50%) | + (Indicates inhibition greater than . . . 50%)
COCC1OC(OCCc2ccccc2)C(NC(=O)CN)C(OCc2ccc(-c3ccccc3)cc2)C1O (centres unmarked) [Compound 274] | + (Indicates inhibition greater than . . . 50%) | + (Indicates inhibition greater than . . . 50%)
COCC1OC(OCCc2ccccc2)C(NC(=O)CCNC(=N)N)C(OCc2ccc(-c3ccccc3)cc2)C1O (centres unmarked) [Compound 275] | + (Indicates inhibition greater than . . . 50%) | + (Indicates inhibition greater than . . . 50%)
COCC1OC(OCCc2ccccc2)C(NC(=O)CCCN)C(OCc2ccc(-c3ccccc3)cc2)C1O (centres unmarked) [Compound 276] | + (Indicates inhibition greater than . . . 50%) | + (Indicates inhibition greater than . . . 50%)
COCC1OC(OCCc2ccccc2)C(NC(=O)CCCNC(=N)N)C(OCc2ccc(-c3ccccc3)cc2)C1O (centres unmarked) [Compound 277] | + (Indicates inhibition greater than . . . 50%) | + (Indicates inhibition greater than . . . 50%)
COCC1OC(OCCc2ccccc2)C(NC(=O)CN)C(OCc2ccc3ccccc3c2)C1O (centres unmarked) [Compound 278] | + (Indicates inhibition greater than . . . 50%) | + (Indicates inhibition greater than . . . 50%)
COCC1OC(OCCc2ccccc2)C(NC(=O)CNC(=N)N)C(OCc2ccc3ccccc3c2)C1O (centres unmarked) [Compound 279] | + (Indicates inhibition greater than . . . 50%) | + (Indicates inhibition greater than . . . 50%)
COCC1OC(OCCc2ccccc2)C(NC(=O)CN)C(OCc2ccc3ccccc3c2)C1O (centres unmarked) [Compound 280] | + (Indicates inhibition greater than . . . 50%) | + (Indicates inhibition greater than . . . 50%)
COCC1OC(OCCc2ccccc2)C(NC(=O)CCNC(=N)N)C(OCc2ccc3ccccc3c2)C1O (centres unmarked) [Compound 281] | + (Indicates inhibition greater than . . . 50%) | + (Indicates inhibition greater than . . . 50%)
COCC1OC(OCCc2ccccc2)C(NC(=O)CCCN)C(OCc2ccc3ccccc3c2)C1O (centres unmarked) [Compound 282] | + (Indicates inhibition greater than . . . 50%) | + (Indicates inhibition greater than . . . 50%)
COCC1OC(OCCc2ccccc2)C(NC(=O)CCCNC(=N)N)C(OCc2ccc3ccccc3c2)C1O (centres unmarked) [Compound 283] | + (Indicates inhibition greater than . . . 50%) | + (Indicates inhibition greater than . . . 50%)
COCC1OC(OCc2ccc3ccccc3c2)C(NC(=O)CNC(=N)N)C(OCc2ccccc2)C1O (centres unmarked) [Compound 285] | + (Indicates inhibition greater than . . . 50%) | + (Indicates inhibition greater than . . . 50%)
COCC1OC(OCc2ccc3ccccc3c2)C(NC(=O)CN)C(OCc2ccccc2)C1O (centres unmarked) [Compound 286] | + (Indicates inhibition greater than . . . 50%) | + (Indicates inhibition greater than . . . 50%)
COCC1OC(OCc2ccc3ccccc3c2)C(NC(=O)CCNC(=N)N)C(OCc2ccccc2)C1O (centres unmarked) [Compound 287] | + (Indicates inhibition greater than . . . 50%) | + (Indicates inhibition greater than . . . 50%)
